Test results taken from patent US6028195A, “Piperazine derivatives and process for the preparation thereof” (Samjin Pharmaceutical Co., Ltd., priority 1996, dated 2000).
In brackets after ≈: the same amount, converted by molar mass. Where two headings read alike, the source gives them in different places.

Tests used:
SKMEL-2 (human melanoma) = assay: SRB assay, in vitro antitumor effect against SKMEL-2; type: cell-based; settings: Homo sapiens; SK-MEL-2, 48 hours; read-out: ED50 (the source's name)
How it was run: (§1)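 SRB read-out at 520 nm after TCA fixation, with time-zero plates collected when drug was added. Cells (5×10^3–2×10^4/well) pre-cultured 24 h, then treated 48 h; final DMSO below 0.5%. Growth/kill response derived from Tz, untreated control and treated OD values.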

[1] = system: A549 (human non-small lung cell); assay: SRB assay, in vitro antitumor effect against A549; type: cell-based; settings: Homo sapiens
How it was run: as §1

[2] = Acute toxicity test (LD50), Litchfield-Wilcoxon method; settings: mouse, in vivo, ip, male ICR mice, 14 days
Description: Acute toxicity test (LD50): Litchfield-Wilcoxon method.
6 weeks old ICR mice(male 30±2.0 g) were fed freely with solid feed and water at room temperature, 23±1° C. and at humidity 60±5%. Sample drugs were injected into the abdominal cavities of mice, while each group comprises 6 mice. Observed during 14 days, external appearances and life or dead were recorded, and then, visible pathogenies were observed from dead animals by dissection. LD50 value was calculated by Litchfiled-wilcoxon method.

XF 498 (human CNS) = assay: SRB assay, in vitro antitumor effect against XF 498; type: cell-based; settings: Homo sapiens, XF498; XF-498, 48 hours; read-out: ED50 (the source's name)
How it was run: as §1

HCT-15 (human colon) = assay: SRB assay, in vitro antitumor effect against HCT-15; type: cell-based; settings: Homo sapiens; HCT 15, 48 hours; read-out: ED50 (the source's name)
How it was run: as §1

[3] = system: mouse leukemia P388 cells; assay: In vivo antitumor effects against mouse leukemia P388 cells in BDF1 mice; settings: P388, ip, abdominal cavity
Description: In vivo antitumor effects against mouse leukemia P388 cells.
1) Leukemia P388 cells being transfer-cultured successively in DBA/2 mouse, were grafted into each mouse of a group comprising 8 mice of 6 week old BDF1 mouse with the dose of 1×10^6 cells/0.1 ml. […]
3) With observation everyday, survival times of tested mice were measured. Antitumor activities was determined in such a manner that the increasing ratio(T/C%) of average survival days of drug-treated groups compared with the control group was calculated using the mean survival times of each tested groups.

SKOV-3 (human ovarian) = assay: SRB assay, in vitro antitumor effect against SKOV-3; type: cell-based; settings: Homo sapiens; SK-OV-3, 48 hours; read-out: ED50 (the source's name)
How it was run: as §1

[4] = A549, 48 hours, read-out: ED50 (the source's name)
[5] = nine everyday, read-out: T/C(%)
[6] = on days 1, 4, 8, read-out: T/C(%)
[7] = on days 1, 5, 9, read-out: T/C(%)

Row | SMILES | IC50 (SKMEL-2 (human melanoma)) [µg/mL] | IC50 [1, 4] [µg/mL] | LD50 at 336 h [2] [mg/kg] | IC50 (XF 498 (human CNS)) [µg/mL] | IC50 (HCT-15 (human colon)) [µg/mL] | response vs control in vivo at 25 mg/kg [3, 5] [%] | response vs control in vivo at 50 mg/kg [3, 5] [%] | IC50 (SKOV-3 (human ovarian)) [µg/mL] | response vs control in vivo at 50 mg/kg [3, 6] [%] | response vs control in vivo at 100 mg/kg [3, 6] [%] | response vs control in vivo at 200 mg/kg [3, 6] [%] | response vs control in vivo at 50 mg/kg [3, 7] [%] | response vs control in vivo at 100 mg/kg [3, 7] [%] | response vs control in vivo at 10 mg/kg [3, 5] [%] | response vs control in vivo at 100 mg/kg [3, 5] [%] | IC50 ([1]; A549, 48 h, read-out: ED50) [µg/mL] | response vs control in vivo at 200 mg/kg [3, 7] [%]
1 | CCCc1nc(OC)c(NC(=O)N2CCN(c3cc(C)cc(C)c3)CC2)cc1C [Example 16, 1-[(2-Methoxy-5-methyl-6-propylpyridin-3-yl)aminocarbonyl]-4-(3,5-dimethylphenyl)piperazine] | 0.038 (≈ 0.0958 µM) | 0.008 (≈ 0.0202 µM) | 283 | 0.005 (≈ 0.0126 µM) | 0.061 (≈ 0.154 µM) | 110 | 165 | 0.04 (≈ 0.101 µM) |  |  |  |  |  |  |  |  | 
2 | COc1cc(C)c(C)cc1NC(=O)N1CCN(c2cc(C)cc(C)c2)CC1 [Example 172, 1-[(4,5-Dimethyl-2-methoxyphenyl)aminocarbonyl]-4-(3,5-dimethylphenyl)piperazine] | 0.0233 (≈ 0.0634 µM) | 0.0047 (≈ 0.0128 µM) | 723 | 0.0086 (≈ 0.0234 µM) | 0.018 (≈ 0.049 µM) |  |  | 0.0097 (≈ 0.0264 µM) | 118 | 127 | 191 |  |  |  |  |  | 
3 | COc1nc2ccccc2cc1NC(=O)N1CCN(c2cc(C)cc(C)c2)CC1 [Example 82, 1-[(2-Methoxyquinolin-3-yl)aminocarbonyl]-4-(3,5-dimethylphenyl)piperazine] | 0.0754 (≈ 0.193 µM) | 0.0676 (≈ 0.173 µM) | 700 | 0.0479 (≈ 0.123 µM) | 0.0346 (≈ 0.0886 µM) |  |  | 0.0249 (≈ 0.0638 µM) |  |  |  | 100 | 127 |  |  |  | 
4 | C=Cc1cc(NC(=O)N2CCN(c3cc(OC)cc(OC)c3)CC2)c(OC)nc1C [Example 73, 1-[(2-Methoxy-6-methyl-5-vinylpyridin-3-yl)aminocarbonyl]-4-(3,5-dimethoxyphenyl)piperazine] | 0.02 (≈ 0.0485 µM) | 0.01 (≈ 0.0242 µM) | 250 | 0.013 (≈ 0.0315 µM) | 0.012 (≈ 0.0291 µM) | 150 | 180 | 0.0054 (≈ 0.0131 µM) |  |  |  |  |  | 140 |  |  | 
5 | COc1nc(C)c(C)cc1NC(=S)N1CCN(c2cc(C)cc(C)c2)CC1 [Example 22, 1-[(5,6-Dimethyl-2-methoxypyridin-3-yl)aminothiocarbonyl]-4-(3,5-dimethylphenyl)piperazine] | 0.027 (≈ 0.0702 µM) | 0.0009 (≈ 0.00234 µM) | > 2000 | 0.0053 (≈ 0.0138 µM) | 0.01 (≈ 0.026 µM) | 110 | 140 | 0.006 (≈ 0.0156 µM) |  |  |  |  |  |  | 150 |  | 
6 | COc1cc(OC)cc(N2CCN(C(=O)Nc3cc4ccccc4nc3OC)CC2)c1 [Example 81, 1-[(2-Methoxyquinolin-3-yl)aminocarbonyl]-4-(3,5-dimethoxyphenyl)piperazine] | 0.0107 (≈ 0.0253 µM) |  | 1600 | 0.0097 (≈ 0.023 µM) | 0.0054 (≈ 0.0128 µM) | 140 | 210 | 0.0007 (≈ 0.00166 µM) |  |  |  | 127 | 146 | 140 |  | 0.0032 (≈ 0.00757 µM) | 218
7 | COc1cc(OC)cc(N2CCN(C(=O)Nc3cc(C(C)O)c(C)nc3OC)CC2)c1 (stereo not shown) [Example 56, 1-{[5-(1-Hydroxyethyl)-2-methoxy-6-methylpyridin-3-yl]aminocarbonyl}-4-(3,5-dimethoxyphenyl)piperazine] | 0.01 (≈ 0.0232 µM) | 0.017 (≈ 0.0395 µM) | 410 | 0.013 (≈ 0.0302 µM) | 0.045 (≈ 0.105 µM) | 145 | 165 | 0.0027 (≈ 0.00627 µM) |  |  |  | 118 | 141 | 140 |  |  | 227
